Literature values as cited in US12281362B2, “Diagnostic tools and treatments for clear cell renal cell carcinoma” (University of Cincinnati, priority 2020, dated 2025).

Tests used:
localized RCC = conditions: adjuvant setting
[1] = clinic

SMILES: CNC(=O)c1cc(Oc2ccc(NC(=O)Nc3ccc(Cl)c(C(F)(F)F)c3)cc2)ccn1 [sorafenib]
- survival (localized RCC): did not improve survival

SMILES: CCN(CC)CCNC(=O)c1c(C)[nH]c(/C=C2\C(=O)Nc3ccc(F)cc32)c1C [Sunitinib]
- adverse effects [1]: serious adverse effects
